Test results published in patent US11426441B2, “Composition comprising protein phosphatase 1 inhibitory peptide for treating vascular diseases” (BethphaGen Inc., priority 2016, dated 2022).
No end group written: not given here.

Columns and labels:
[1] = tested on: SERCA2a; experiment: Aorta ex vivo organ culture, SERCA2a western blotting; format: cell-based; details: ex vivo culture of rat thoracic aorta, injury by scratching
Method: A rat thoracic aorta was harvested and incubated in RPMI-1640 medium containing 20 mM HEPES, 2 mM L-glutamine, 100 IU/mL penicillin, and 100 μg/mL streptomycin. The adventitia was removed, and the aorta was cut longitudinally and fixed onto a resin. To investigate the degradation of SERCA2a, tissue fragments were cultured for 7-10 days in RPMI-1640 medium containing 20% (v/v) FCS. The medium was replaced every 48 hours.
Vascular smooth muscle cells (VSMCs) were homogenized in a minimal volume of 50 mM Tris-HCl, pH 7.4, supplemented with a broad-spectrum protease inhibitor cocktail (Calbiochem). The proteins were separated by SDS-PAGE and then transferred to polyvinylidene fluoride membranes (Schleicher & Schuell). After blocking with 5% (w/v) non-fat milk for 1 hour and washing with TBST, the membranes were incubated with antibodies against SERCA2a, SERCA2b (21st century biochemical), PCNA (abcam), GAPDH (Sigma-Aldrich), phospho-eNOS, eNOS, phospho-eIF2α, eIF2α (cell signaling), Vimentin, α-SMA, BMPR2 (Santa cruz), phospho-Akt, Akt (cell signaling), phospho-phospholamban (Merck), and Phospholamban (cell signaling). The membranes were then incubated with horseradish peroxidase-conjugated secondary antibodies (Jackson ImmunoResearch, West Grove, Pa., USA) and developed using a chemiluminescent substrate (Dogen). The blots were scanned and quantified using LAS software.

[2] = tested on: SERCA2a; experiment: A23187-induced SERCA2a degradation in HCSMCs; format: cell-based, human; details: HCSMCs pretreated 1 hour with 3 μM ψPLB-SE or 15 μM MDL28170, then 50 μM A23187 2 hours
Method: FIGS. 4a, 4b, 4c and 4d. (4a-4c) HCSMCs were pretreated with 3 μM ψPLB-SE and 15 μM MDL28170 for 1 hour, and then treated with 50 μM A23187 for 2 hours. (4a) Immunostaining was performed with antibodies against SERCA2a and SERCA2b (green). Nuclei were stained with Hoechst (blue). Representative merged images are shown. Scale bar, 50 μm. (4b) Western blot analysis was performed with cell extracts. Data are expressed as the means±SD (n=3-4; *, P<0.05). (4c) Baseline Ca^2+ concentration was measured by lonOptix calcium imaging system. (4d) RASMC were treated with ψPLB-SE or control peptide under the same conditions as described for FIG. 1B. The baseline Ca^2+ concentration was measured by lonOptix calcium imaging system (*, P<0.05).
(§1) The rat aortic smooth muscle cells (RASMCs) were isolated from the medial layer of the thoracic aorta derived from male Sprague-Dawley rats (body weight, 180-200 g) by an enzymatic reaction with collagenase (50 U/mL, Worthington) and pancreatic elastase (0.25 mg/mL, Sigma-Aldrich) for 4 hours at 37. The cells were collected and resuspended in DMEM containing 20% (v/v) fetal bovine serum. The resuspension was then plated on collagen I (Sigma-Aldrich)-coated glass coverslips and incubated at 37 in an atmosphere of 5% (v/v) CO2 and 95% (v/v) air. Human coronary smooth muscle cells (HCSMCs), pulmonary arterial endothelial cells (PAECs), and pulmonary arterial smooth muscle cells (PASMCs) were purchased from Lonza and cultured in EBM or SmBM (Lonza) supplemented with 0.5 mg/mL hEGF, […], 1 mg/mL hFGF, […] gentamicin/amphotericin-B, and 5% fetal bovine serum. All the cells were cultured at 37 in 5% (v/v) CO2 and 95% (v/v) air. RASMCs and HCSMCs were, respectively, plated at the densities of 1×10^4 cells/cm^2 and 1×10^5 cells/cm^2 for immunostaining and western blotting experiments. […]
(§2) Vascular smooth muscle cells (VSMCs) were homogenized in a minimal volume of 50 mM Tris-HCl, pH 7.4, supplemented with a broad-spectrum protease inhibitor cocktail (Calbiochem). […] The blots were scanned and quantified using LAS software.

[3] = tested on: interaction of PP1 and Akt; experiment: PP1 immunoprecipitation of pulmonary tissue lysate; format: binding; details: ψPLB-SE added upon the precipitation
Method: FIGS. 16a, 16b and 16c. (16a-16b) PAECs were treated with 3 μM ψPLB-SE for 1 hour, and protein expression was quantitatively analyzed through western blotting using antibodies against Phospho-eNOS (ser1177), total eNOS, phospho-Akt (Ser473, Thr308), total Akt, and GAPDH. (16c) The pulmonary tissue lysate was subjected to immunoprecipitation using PP1 antibody to investigate the interactions of PP1 with eNOS and Akt depending on the presence or absence of the treatment with ψPLB-SE using respective antibodies therefor.
In order to intensively investigate the interactions of PP1 with eNOS and Akt, the pulmonary tissue lysate was subjected to immunoprecipitation using an antibody against PP1, and the effects of ψPLB-SE on the interactions were investigated by adding ψPLB-SE upon the precipitation. […] The activation of eNOS through the inhibition of the interaction between PP1 and Akt was supplemented through the experiments on the inhibition of the high-order kinase of Akt. The phosphorylation increases of Akt and eNOS due to the inhibition of dephosphorylation were investigated by offsetting the phosphorylation conditions of Akt through the treatment with LY294002, which is an inhibitor of phosphoinositide-3-kinase (PI3K), a known high-order kinase of Akt, at a concentration of 50 μM, followed by ψPLB-SE treatment. […]

[4] = tested on: SERCA2a; experiment: Calcium uptake assay (SERCA2a activity) in PASMCs; format: biochemical; details: synthetic phenotype, 3 μM
Method: Pulmonary arterial smooth muscle cells (PASMCs) were homogenized in a solution of pH 7.0 containing 40 mM imidazole, 10 mM NaF, 1 mM EDTA, 300 mM sucrose, and 0.5 mM DTT, and 250 μg of the lysate was added to an uptake buffer of pH 7.0 containing 100 mM KCl, 5 mM MgCl2, 5 mM NaN3, […], and 40 mM imidazole, and calcium uptake assay was performed with a calcium concentration of pCa 6, containing radioactive isotopes. The cells were treated with 1 μM ruthenium red (Sigma Aldrich), followed by waiting at 37° C. for 3 min, and then treated with 5 mM K-oxalate and Mg-ATP (Sigma Aldrich). In addition, 500 μl of the reaction material was filtered out through a 0.45 μm filter (Millipore) from the start of a reaction to 4 minutes at intervals of 1 minute, and cpm (count per minute) was measured using a scintillation counter (Beckman).

[5] = tested on: pulmonary arterial smooth muscle cells (PASMCs); experiment: PASMC proliferation (PCNA western blotting, cell proliferation assay); format: cell-based; details: synthetic phenotype induction
Method: FIGS. 19a and 19b. […] (19a) Protein expression was quantitatively analyzed through western blotting using antibodies against PCNA and GAPDH 12 and 24 hours after the treatment. (19b) Cell proliferation assay was performed using EZ-CyTox cell viability assay kit.
as §1, with “serum.” for “serum. All the cells were cultured at 37 in 5% (v/v) CO2 and 95% (v/v) air. RASMCs and HCSMCs were, respectively, plated at the densities of 1×10^4 cells/cm^2 and 1×10^5 cells/cm^2 for immunostaining and western blotting experiments.”
as §2

Sequence: RAETIEMPQ (not fully specified) [ψPLB-SE, 9-mer PP1 decoy peptide mimicking phosphorylated PLB; conjugated via GGG linker to cell penetrating peptide dNP2 or TAT]
- injury-dependent reduction of SERCA2a in VSMCs [1]: completely inhibited
- A23187 (Ca^2+)-dependent degradation of SERCA2a [2]: completely inhibited
- interaction of Akt with PP1 (immunoprecipitation) [3]: attenuated
- SERCA2a activity (Ca^2+ uptake assay) [4]: restored
- cell proliferation (cell proliferation assay) [5]: inhibiting cell proliferation
- expression of PCNA [5]: attenuated
